In PubChem BioAssay AID2060484 (Molecular Pharmacology Branch, DTP, NCI, 2025):

Tested on: SUM149PT spheroids with HUVEC/MSC, viability
Assay: Anticancer human tumor SUM149PT cell line growth inhibition [GQUAD];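 note: spheroids exposed to drugs for seven days before readout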;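 for viability, T/C: percent viability relative to DMSO vehicle control taken as 100%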
Settings: for IC50: curve of first compound; for viability, T/C: stronger effect = lower value; active = viability on the fitted dose curve at most 10% of control; inactive = the rest
Method in brief: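 Viability of tumor cells grown as complex spheroids with endothelial and stromal cells, exposed to drug combinations. Top concentration at or near clinical Cmax (else 10 microM), diluted in half-log increments.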

[1] = second compound 0.0316 µM, first compound 0.000999 µM
[2] = second compound 0.0316 µM, first compound 0.00316 µM
[3] = second compound 0.0316 µM, first compound 0.00999 µM
[4] = second compound 0.0316 µM, first compound 0.0316 µM
[5] = second compound 0.0316 µM, first compound 0.0999 µM
[6] = second compound 0.0316 µM, first compound 0.316 µM
[7] = second compound 0.1 µM, first compound 0.000999 µM
[8] = second compound 0.1 µM, first compound 0.00316 µM
[9] = second compound 0.1 µM, first compound 0.00999 µM
[10] = second compound 0.1 µM, first compound 0.0316 µM
[11] = second compound 0.1 µM, first compound 0.0999 µM
[12] = second compound 0.1 µM, first compound 0.316 µM
[13] = second compound 0.316 µM, first compound 0.000999 µM
[14] = second compound 0.316 µM, first compound 0.00316 µM
[15] = second compound 0.316 µM, first compound 0.00999 µM
[16] = second compound 0.316 µM, first compound 0.0316 µM
[17] = second compound 0.316 µM, first compound 0.0999 µM
[18] = second compound 0.316 µM, first compound 0.316 µM
[19] = second compound 1 µM, first compound 0.000999 µM
[20] = second compound 1 µM, first compound 0.00316 µM
[21] = second compound 1 µM, first compound 0.00999 µM
[22] = second compound 1 µM, first compound 0.0316 µM
[23] = second compound 1 µM, first compound 0.0999 µM
[24] = second compound 1 µM, first compound 0.316 µM
[25] = second compound 3.16 µM, first compound 0.000999 µM
[26] = second compound 3.16 µM, first compound 0.00316 µM
[27] = second compound 3.16 µM, first compound 0.00999 µM
[28] = second compound 3.16 µM, first compound 0.0316 µM
[29] = second compound 3.16 µM, first compound 0.0999 µM
[30] = second compound 3.16 µM, first compound 0.316 µM
[31] = second compound 10 µM, first compound 0.000999 µM
[32] = second compound 10 µM, first compound 0.00316 µM
[33] = second compound 10 µM, first compound 0.00999 µM
[34] = second compound 10 µM, first compound 0.0316 µM
[35] = second compound 10 µM, first compound 0.0999 µM
[36] = second compound 10 µM, first compound 0.316 µM

Cc1[nH]c2ccccc2c1CCNCc1ccc(/C=C/C(=O)NO)cc1 + Cc1[nH]c2ccc(F)cc2c1-c1nc2c3cccnc3c3ncccc3c2[nH]1
308 nM: IC50 (second compound 3.16 µM)
> 316 nM: IC50 (second compound 0.1 µM)
299 nM: IC50 (second compound 0.316 µM)
260 nM: IC50 (second compound 0.0316 µM)
inactive: viability, T/C [1] 98% | viability, T/C [2] 99.6% | viability, T/C [3] 103% | viability, T/C [4] 102% | viability, T/C [5] 98% | viability, T/C [6] 40.3% | viability, T/C [7] 101% | viability, T/C [8] 97.5% | viability, T/C [9] 97.6% | viability, T/C [10] 97.2% | viability, T/C [11] 90.6% | viability, T/C [12] 50.3% | viability, T/C [13] 108% | viability, T/C [14] 107% | viability, T/C [15] 98% | viability, T/C [16] 106% | viability, T/C [17] 87.6% | viability, T/C [18] 47.8% | viability, T/C [19] 106% | viability, T/C [20] 96.6% | viability, T/C [21] 93.6% | viability, T/C [22] 105% | viability, T/C [23] 97.4% | viability, T/C [24] 48.3% | viability, T/C [25] 96.8% | viability, T/C [26] 89.4% | viability, T/C [27] 81.4% | viability, T/C [28] 93.3% | viability, T/C [29] 89.4% | viability, T/C [30] 49.1% | viability, T/C [31] 99.1% | viability, T/C [32] 88% | viability, T/C [33] 89.4% | viability, T/C [34] 88.5% | viability, T/C [35] 82.2% | viability, T/C [36] 41.4%
250 nM: IC50 (second compound 10 µM)
304 nM: IC50 (second compound 1 µM)

CCc1c2c(nc3ccc(O)cc13)-c1cc3c(c(=O)n1C2)COC(=O)[C@]3(O)CC + Cc1cnc(CNC(=O)c2c(=O)c3ccc(N4CCCN(C)CC4)nc3n3c2sc2ccccc23)cn1
inactive: viability, T/C [1] 45% | viability, T/C [2] 30.6% | viability, T/C [3] 42.1% | viability, T/C [4] 30.6% | viability, T/C [5] 25.9% | viability, T/C [6] 12.1% | viability, T/C [7] 38.9% | viability, T/C [8] 40.9% | viability, T/C [9] 44.6% | viability, T/C [10] 38.9% | viability, T/C [11] 25.1% | viability, T/C [12] 10.2% | viability, T/C [13] 38.7% | viability, T/C [14] 42.8% | viability, T/C [15] 41.1% | viability, T/C [16] 33.8% | viability, T/C [17] 21.8% | viability, T/C [18] 10.8% | viability, T/C [19] 37% | viability, T/C [20] 41.2% | viability, T/C [21] 37.1% | viability, T/C [22] 35.5% | viability, T/C [23] 19.7% | viability, T/C [25] 33.1% | viability, T/C [26] 38.7% | viability, T/C [27] 37.1% | viability, T/C [28] 31% | viability, T/C [29] 21.9%
active: viability, T/C [24] 8.28% | viability, T/C [30] 3.55% | viability, T/C [31] 0.16% | viability, T/C [32] 3.09% | viability, T/C [33] 0.98% | viability, T/C [34] 1.56% | viability, T/C [35] 1.51% | viability, T/C [36] 1.72%
< 0.999 nM: IC50 (second compound 0.0316 µM) | IC50 (second compound 0.1 µM) | IC50 (second compound 0.316 µM) | IC50 (second compound 1 µM) | IC50 (second compound 3.16 µM) | IC50 (second compound 10 µM)
